In data set [1] the test system is Puccinia recondita f. Sp. Tritici. Description: Puccinia recondita f. sp. tritici / wheat / leaf disc curative (brown rust). The format is in vivo. The conditions noted are these: foliar, 144 h, 200 ppm in the applied formulation, wheat leaf segments cv. Kanzler, applied 1 day after inoculation, assessed 6 to 8 days after application, vs untreated, read-out: disease control. Summed up: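 Compounds, prepared from DMSO solutions of at most 10 mg/ml and diluted just before spraying, are applied curatively to inoculated Kanzler wheat leaf segments. Segments are incubated at 19° C and 75% RH in a climate cabinet; disease control relative to untreated is evaluated 6 to 8 days later.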

For data set [2], the system named is Glomerella Lagenarium (Colletotrichum Lagenarium). Kind of data set: Glomerella lagenarium (Colletotrichum lagenarium) liquid culture / cucumber / preventative (anthracnose). It is filed as cell-based. The settings on record: Colletotrichum orbiculare; 20 ppm in the applied formulation; liquid culture in PDB, 24° C., inhibition of growth measured photometrically 3 to 4 days after application, vs untreated; read-out: disease control. An outline of the steps: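 Conidia from cryogenic storage were mixed into potato dextrose broth. This was added to compound diluted from DMSO into 0.025% Tween20, tested at 20 ppm. Plates were incubated in the dark at 24 °C and 96% relative humidity, and growth was read photometrically after 2–7 days as % activity versus untreated check.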

Data set [3] deals with Puccinia recondita f. Sp. Tritici. Description: Puccinia recondita f. sp. tritici / wheat / leaf disc preventative (brown rust). The settings on record: foliar, 168 h, 200 ppm in the applied formulation, wheat leaf segments cv. Kanzler, preventative, inoculated 1 day after application, assessed 7 to 9 days after application, vs untreated, read-out: disease control. The format is in vivo. An outline of the steps:
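Preventative leaf-segment test: spray application of diluted formulated compound on wheat cv. Kanzler, spore inoculation after 1 day. Percent control relative to untreated segments rated 7 to 9 days post-application, with incubation at 19° C, 75% relative humidity, 12 h photoperiod.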

In another data set the test system is Uromyces viciae-Fabae. Description: Uromyces viciae-fabae / field bean / leaf disc preventative (faba-bean rust). The format is in vivo. The conditions noted are these: foliar, 288 h, 100 ppm in the applied formulation, field bean leaf discs, inoculated two hours after application, assessed 12 days after application, vs untreated, read-out: disease control. On the procedure: Leaf disks or leaf segments of various plant species are cut from plants grown in a greenhouse. The cut leaf disks or segments are placed in multiwell plates (24-well format) onto water agar. The leaf disks are sprayed with a test solution before (preventative) or after (curative) inoculation. Compounds to be tested are prepared as DMSO solutions (max. 10 mg/ml) which are diluted to the appropriate concentration with 0.025% Tween20 just before spraying. The inoculated leaf disks or segments are incubated under defined conditions (temperature, relative humidity, light, etc.) according to the respective test system. A single evaluation of disease level is carried out 3 to 14 days after inoculation, depending on the pathosystem. Percent disease control relative to the untreated check leaf disks or segments is then calculated.
Field bean leaf discs are placed on water agar in multiwell plates (96-well format) and 10 μl of the formulated test compound diluted in acetone and a spreader pipetted onto the leaf disc. Two hours after application leaf discs are inoculated by spraying a spore suspension on the lower leaf surface. The leaf discs are incubated in a climate cabinet at 22° C. with 18 hour day and 70% relative humidity. The activity of a compound is assessed as percent disease control compared to untreated when an appropriate level of disease damage appears in untreated check leaf disks (12 days after application).
The following compounds at 100 ppm in the applied formulation give at least 80% disease control in this test when compared to untreated control leaf discs under the same conditions, which show extensive disease development.

Another data set deals with Phakopsora pachyrhizi. Description: Phakopsora pachyrhizi / soybean / leaf disc preventative (Asian soybean rust). The format is in vivo. The settings on record: foliar, 288 h, 200 ppm in the applied formulation, soybean leaf disks, inoculated one day after application, assessed 12 to 14 days after application, vs untreated, read-out: disease control. Summed up:
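Read-out is percent disease control relative to untreated check discs, assessed once untreated discs show adequate disease, 12 to 14 days after application. Compounds, tested at 200 ppm in the applied formulation, are sprayed onto soybean leaf discs one day before inoculation with a spore suspension.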

What is called melting point is the temperature, or range, at which the solid turns liquid.

`CCn1cc(-c2cn(Cc3ccc(-c4noc(C(F)(F)F)n4)cc3)nn2)c(C)n1` [Compound 1.1, 3-[4-[[4-(1-ethyl-3-methyl-pyrazol-4-yl)triazol-1-yl]methyl]phenyl]-5-(trifluoromethyl)-1,2,4-oxadiazole] gave a melting point of 116.2 to 118.2 °C. Besides, the pest or weed control at 200 ppm in data set [1] is at least 80%. In addition, the inhibition of growth at 20 ppm in data set [2] is at least 80%. In data set [3], the pest or weed control at 200 ppm is at least 80%. The pest or weed control at 100 ppm in the data set with Uromyces viciae-Fabae is at least 80%. Further, the pest or weed control at 200 ppm in the data set on Phakopsora pachyrhizi was at least 80%.
`CCn1ncc(-c2cn(Cc3ccc(-c4noc(C(F)(F)F)n4)cc3)nn2)c1C` [Compound 1.2, 3-[4-[[4-(1-ethyl-5-methyl-pyrazol-4-yl)triazol-1-yl]methyl]phenyl]-5-(trifluoromethyl)-1,2,4-oxadiazole] returned a melting point of 138.3 to 140.1 °C. Further, the pest or weed control at 200 ppm in data set [1] is at least 80%. Also, the inhibition of growth at 20 ppm in data set [2] is at least 80%. For the same compound, the pest or weed control at 200 ppm in data set [3] is at least 80%. Besides, the pest or weed control at 100 ppm with Uromyces viciae-Fabae is at least 80%. Further, the pest or weed control at 200 ppm with Phakopsora pachyrhizi is at least 80%.
`FC(F)(F)c1nc(-c2ccc(Cn3cc(-c4ccccc4)nn3)cc2)no1` [Compound 1.4, 3-[4-[(4-phenyltriazol-1-yl)methyl]phenyl]-5-(trifluoromethyl)-1,2,4-oxadiazole] yielded a melting point of 161.5 to 164.4 °C. In data set [2], the inhibition of growth at 20 ppm is at least 80%. Moreover, the pest or weed control at 200 ppm in data set [3] is at least 80%. The pest or weed control at 100 ppm with Uromyces viciae-Fabae is at least 80%. Also, the pest or weed control at 200 ppm in the data set with Phakopsora pachyrhizi was at least 80%.
Compound `FC(F)(F)c1nc(-c2ccc(Cn3cc(C4CC4)nn3)cc2)no1` [Compound 1.5, 3-[4-[(4-cyclopropyltriazol-1-yl)methyl]phenyl]-5-(trifluoromethyl)-1,2,4-oxadiazole] yielded a melting point of 115.5 to 117.2 °C. The pest or weed control at 200 ppm in data set [1] was at least 80%. Also, in data set [2], the inhibition of growth at 20 ppm is at least 80%. In data set [3], the pest or weed control at 200 ppm is at least 80%. Also, the pest or weed control at 100 ppm in the data set on Uromyces viciae-Fabae was at least 80%. The pest or weed control at 200 ppm in the data set on Phakopsora pachyrhizi is at least 80%.
As to `Cn1cncc1-c1cn(Cc2ccc(-c3noc(C(F)(F)F)n3)cc2)nn1` [Compound 1.6, 3-[4-[[4-(3-methylimidazol-4-yl)triazol-1-yl]methyl]phenyl]-5-(trifluoromethyl)-1,2,4-oxadiazole], the melting point lay in the range of 108.7 to 110.3 °C. Also, in data set [1], the pest or weed control at 200 ppm was at least 80%. Moreover, the inhibition of growth at 20 ppm in data set [2] is at least 80%. Moreover, the pest or weed control at 200 ppm in data set [3] was at least 80%. The pest or weed control at 100 ppm with Uromyces viciae-Fabae is at least 80%. For the same compound, in the data set with Phakopsora pachyrhizi, the pest or weed control at 200 ppm is at least 80%.
`CC(=O)OCc1cn(Cc2ccc(-c3noc(C(F)(F)F)n3)cc2)nn1` [Compound 1.7, [1-[[4-[5-(trifluoromethyl)-1,2,4-oxadiazol-3-yl]phenyl]methyl]triazol-4-yl]methyl acetate] had a melting point of 157.4 to 160.4 °C. Also, the inhibition of growth at 20 ppm in data set [2] was at least 80%. Besides, the pest or weed control at 200 ppm in data set [3] was at least 80%. The pest or weed control at 100 ppm with Uromyces viciae-Fabae was at least 80%. Also, in the data set with Phakopsora pachyrhizi, the pest or weed control at 200 ppm is at least 80%.
As for `CC(C)(C)OC(=O)NCc1cn(Cc2ccc(-c3noc(C(F)(F)F)n3)cc2)nn1` [Compound 1.9, tert-butyl N-[[1-[[4-[5-(trifluoromethyl)-1,2,4-oxadiazol-3-yl]phenyl]methyl]triazol-4-yl]methyl]carbamate], the melting point fell in the range of 134.7 to 136.9 °C. The pest or weed control at 200 ppm in data set [1] is at least 80%. Also, the inhibition of growth at 20 ppm in data set [2] was at least 80%. Besides, the pest or weed control at 200 ppm in data set [3] was at least 80%. In addition, in the data set with Uromyces viciae-Fabae, the pest or weed control at 100 ppm was at least 80%. Moreover, the pest or weed control at 200 ppm in the data set with Phakopsora pachyrhizi is at least 80%.
The compound `CCOCc1cn(Cc2ccc(-c3noc(C(F)(F)F)n3)cc2)nn1` [Compound 1.11, 3-[4-[[4-(ethoxymethyl)triazol-1-yl]methyl]phenyl]-5-(trifluoromethyl)-1,2,4-oxadiazole] had a melting point of 115.7 to 117.6 °C. In addition, in data set [1], the pest or weed control at 200 ppm was at least 80%. Further, the pest or weed control at 200 ppm in data set [3] was at least 80%. Moreover, in the data set on Uromyces viciae-Fabae, the pest or weed control at 100 ppm was at least 80%. Further, the pest or weed control at 200 ppm in the data set on Phakopsora pachyrhizi was at least 80%.
`Cc1cc(C)n(Cc2ccc(-c3noc(C(F)(F)F)n3)cc2)n1` [Compound 1.15, 3-[4-[(3,5-dimethylpyrazol-1-yl)methyl]phenyl]-5-(trifluoromethyl)-1,2,4-oxadiazole] had a melting point of 53 to 58 °C. In addition, the pest or weed control at 200 ppm in data set [1] was at least 80%. Further, the inhibition of growth at 20 ppm in data set [2] is at least 80%. In addition, the pest or weed control at 200 ppm in data set [3] was at least 80%. For the same compound, in the data set with Uromyces viciae-Fabae, the pest or weed control at 100 ppm was at least 80%. In addition, in the data set on Phakopsora pachyrhizi, the pest or weed control at 200 ppm is at least 80%.
`FC(F)(F)c1nc(-c2ccc(Cn3cccn3)cc2)no1` [Compound 1.16, 3-[4-(pyrazol-1-ylmethyl)phenyl]-5-(trifluoromethyl)-1,2,4-oxadiazole] displayed a melting point of 36 to 41 °C. In addition, the pest or weed control at 200 ppm in data set [1] is at least 80%. Also, the inhibition of growth at 20 ppm in data set [2] was at least 80%. Also, the pest or weed control at 200 ppm in data set [3] is at least 80%. In the data set with Uromyces viciae-Fabae, the pest or weed control at 100 ppm was at least 80%. In addition, the pest or weed control at 200 ppm in the data set with Phakopsora pachyrhizi was at least 80%.
`FC(F)c1cc(C(F)F)n(Cc2ccc(-c3noc(C(F)(F)F)n3)cc2)n1` [Compound 1.17, 3-[4-[[3,5-bis(difluoromethyl)pyrazol-1-yl]methyl]phenyl]-5-(trifluoromethyl)-1,2,4-oxadiazole]: the melting point is 53 to 58 °C. Moreover, the inhibition of growth at 20 ppm in data set [2] was at least 80%. Also, the pest or weed control at 100 ppm in the data set on Uromyces viciae-Fabae was at least 80%. In addition, the pest or weed control at 200 ppm in the data set on Phakopsora pachyrhizi was at least 80%.
As to `FC(F)(F)c1nc(-c2ccc(Cn3ccnc3)cc2)no1` [Compound 1.18, 3-[4-(imidazol-1-ylmethyl)phenyl]-5-(trifluoromethyl)-1,2,4-oxadiazole], the melting point fell in the range of 45 to 55 °C. The pest or weed control at 200 ppm in data set [1] is at least 80%. Also, the inhibition of growth at 20 ppm in data set [2] was at least 80%. Besides, the pest or weed control at 200 ppm in data set [3] was at least 80%. The pest or weed control at 100 ppm in the data set on Uromyces viciae-Fabae was at least 80%. Further, in the data set with Phakopsora pachyrhizi, the pest or weed control at 200 ppm is at least 80%.
Compound `FC(F)(F)c1nc(-c2ccc(Cn3cncn3)cc2)no1` [Compound 1.19, 3-[4-(1,2,4-triazol-1-ylmethyl)phenyl]-5-(trifluoromethyl)-1,2,4-oxadiazole] gave a melting point of 72 to 77 °C. Moreover, the pest or weed control at 200 ppm in data set [1] is at least 80%. Further, the inhibition of growth at 20 ppm in data set [2] was at least 80%. For the same compound, in data set [3], the pest or weed control at 200 ppm was at least 80%. Also, the pest or weed control at 100 ppm with Uromyces viciae-Fabae was at least 80%. In the data set with Phakopsora pachyrhizi, the pest or weed control at 200 ppm was at least 80%.

The values above are taken from US10798941B2, “Microbiocidal oxadiazole derivatives” (SYNGENTA PARTICIPATIONS AG, priority 2016, dated 2020).
